{
  "source": "patent US8586638B2",
  "about": "“Parakeratosis inhibitor and skin preparation for external use” (priority 2003, dated 2013)",
  "key": {"[1]": {"system": "skin surface stratum corneum of human cheek", "assay": "Parakeratosis inhibition effect on human skin by N-ethylglycine: number of nuclear cells of skin surface stratum corneum", "format": "in vivo", "settings": "3 weight % N-ethylglycine side against control side (15 weight % ethanol); area 12 mm by 34 mm; FIG. 2", "from_the_text": "(§1) In the pore-shrinking effect test on human skin as described in the embodiment 5, the application of N-ethylglycine was further studied about the amelioration of parakeratosis by measuring the number of nuclear cell of skin surface stratum corneum, obtained by means of a tape. Replica was used to actually measure the pore size within the area of 3.34 mm by 3.34 mm to evaluate the pore-shrinking effect.\n(§2) More specifically, the skin surface stratum corneum was sampled by means of carton tape (Nichiban, Co. Ltd.) only after the application of sample, Hoechst 33342 solution dissolved in PBS to 0.1 mg/ml was then added, and after the sample was placed in a dark place for 20 minutes, the number of nuclear cells within the area of 12 mm by 34 mm by using a fluorescent microscope. For the replicas made by using silflo (Flexico, Co. Ltd.) was measured before and after the application to capture three-dimensional surface form within the same area (3.34 mm by 3.34 mm) with a confocal microscope (HD100D, Lasertech) to measure and compare the size of pores (surface area value)."}, "[2]": {"system": "skin roughness caused by oleic acid on the back of hairless mice", "assay": "Inhibitory effect on skin roughness by the application of oleic acid (TEWL value)", "format": "in vivo, hairless mice (HR-1)", "parameters": "ΔTEWL: unit not given here", "description": "To study the inhibitory effect on the skin roughness by the application of oleic acid by the glycine derivatives and the salts thereof as well as the aminosulfuric acid derivatives and the salts thereof in accordance with the invention 2, the […] (TEWL value) before and after the application was measured to compare the difference therebetween with the value of control (control solution) in order to determine the effect. The preparation of samples and the application procedure were in accordance with the embodiment 4. The TEWL value was measured by means of TEWA meter TM210 (Courage+Khazaka Inc.).\n100 microliters of 10 weight % oleic acid (solvent: ethanol) was applied to the back of hairless mice (HR-1, four in each group). Thereafter, 100 microliters of sample solutions (glycine derivatives and the salts thereof as well as the aminosulfuric acid derivatives and the salts thereof) in accordance with the invention 2 were applied at each time. This procedure was repeated for 3 days. The day after the application, TEWL value of the back of mice was measured and the values were averaged. The larger delta-TEWL value indicates severer aggravation of skin roughness."}, "[3]": {"system": "pores on the cheek of healthy male subjects", "assay": "Effect of shrinking human pores: replica evaluation of cheek pores", "format": "in vivo", "settings": "for Replica Evaluation (mean of n = 5), difference of pore size score before/after application: twice a day for a month, cheek", "description": "An experiment of application of sample twice a day for a month on the cheek of healthy male subjects, was conducted with each group consisting of 5 individuals. 3 weight % solution of the glycine derivatives in accordance with the invention 1 (including 15 weight % of ethanol) was prepared. pH was regulated to the range between 7.0 and 7.5, by using hydrochloric acid and/or sodium hydroxide. Control was 15 weight % ethanol solution. Said 3 weight % solution was applied to one side and said control solution was applied to the other side.\nReplicas were prepared prior to and after the application to observe the change of form of pores in the same spot under a three-dimensional laser scanning microscope. The size of pores was evaluated visually 13 steps from 1 to 13 (larger number indicates larger pore size), and the difference between the resulted evaluations before/after the application experiment was then calculated to study the effectiveness of each specimen.\nAn experiment of application of sample twice a day for a month on the cheek of healthy male subjects, was conducted with each group consisting of 5 individuals. 3 weight % solution of the glycine derivatives and the salts thereof as well as the aminosulfuric acid derivatives and the salts thereof in accordance with the invention 2 (including 15 weight % of ethanol), 2 weight % solution of ACES (including 15 weight % of ethanol), 3 weight % solution of CAPS (including 15 weight % of ethanol), and 3 weight % solution of CAPSO (including 15 weight % of ethanol) were prepared. pH was regulated to the range between 7.0 and 7.5, by using hydrochloric acid and/or sodium hydroxide. 15 weight % ethanol solution was used as control. Said sample solutions was applied to one side, and said control solution was applied to the other side."}, "[4]": {"system": "parakeratosis and skin roughness caused by oleic acid on the back of hairless mice", "assay": "Parakeratosis inhibition effect test: oleic acid applied to the back of hairless mice, visual skin roughness and parakeratosis level", "format": "in vivo, hairless mice (HR-1)", "parameters": "key to Evaluation Visual (mean of 4 mice), skin roughness: 0.0 = no roughness, 2.0 = control application; 0.25 steps", "settings": "for Evaluation Parakeratosis (mean of 4 mice): range 1.0 to 3.0, higher = severer, control 2.0; for Evaluation Visual (mean of 4 mice), skin roughness: score 0.0 no roughness, 2.0 control", "procedure,_shortened": "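Hairless mice (HR-1) received 100 microliters of 10 weight % oleic acid in ethanol on the back, followed by 100 microliters of test solution (aqueous, with 30 weight % ethanol, pH 7.0 to 7.5), repeated for 3 days. The next day, CCD-camera images were scored visually for roughness (control 2.0, none 0.0), and tape-stripped haematoxylin-stained stratum corneum was graded for parakeratosis from 1.0 to 3.0 in 0.25 steps.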"}, "[5]": {"system": "pores on the cheek of healthy male subjects", "assay": "Pore-shrinking effect on human skin by N-ethylglycine: pore surface area by replica analysis", "format": "in vivo", "settings": "3 weight % N-ethylglycine side; control 92%; area 3.34 mm by 3.34 mm; FIG. 3", "from_the_text": "as §1, §2"}, "[6]": {"system": "pores (conical portion) on the cheek of healthy adult males", "assay": "Effect of shrinking human pores by glycylglycine: conical portion surface area from cheek replica", "format": "in vivo", "description": "Since we obtained a good result from glycylglycine in the embodiment 2, we conducted an application experiment of glycylglycine three times a day (0.1 milliliter each) on the cheek of 21 healthy adult males (age of 20s to 50s, average 40.4 years old) for a period of one month. 1.6% (w/w) glycylglycine solution (pH regulated to 7.0) including 15% (w/w) ethanol, and 15% (w/w) ethanol solution (control) was prepared, for applying the same to each one side cheek.\nBy obtaining a cheek replica (Silflo) before and after the continuous application, the surface area of conical portion was measured by a three-dimensional analysis system (Okuri et al., Japan Society of Dermatology Annual Meeting Program/Abstract, 2004, 104, pp. 601) by means of wide view confocal microscope HD100D (lasertech).\nFor the surface area recognized as pore portion within the replica measuring area of 3.34 mm by 3.34 mm, the conical portion surface area (mm2) and the ratio thereof before and after the application is shown in Table 3. From Table 3, The ratio among the panel that the surface area of glycylglycine applied side was decreased more than 10% when compared to the control application side (glycylglycine side was shrunk), the panel that the variation was within 10% and no noticeable change observed (no change), and the panel that the control application side was decreased more than 10% (other side was shrunk) was 13:5:3.\nWhen averaging the surface area ratio before and after the application, the side of control solvent solution was 102%, while the side of glycylglycine was reduced to 89%. By evaluating this surface area ratio with t-analysis, we obtained p=0.019, indicating significant shrinkage of pore area in the glycylglycine applied side (see FIG. 1)."}, "[7]": {"system": "pores (conical portion) on the cheek of healthy adult males", "assay": "Effect of shrinking human pores by glycylglycine: conical portion surface area from cheek replica", "format": "in vivo", "settings": "glycylglycine applied side compared with ethanol applied side"}, "[8]": {"settings": "Table 4, sample 3 weight % in aqueous 30 weight % ethanol (hydantoic acid: 20 weight % ethanol)"}, "[9]": {"settings": "sample 3 weight % in aqueous 30 weight % ethanol, after 10 weight % oleic acid, 3 days"}},
  "note": "Where “and” joins values, the source holds several entries; their conditions need not be identical. Identical values can stand only once. Where a SMILES comes first, the peptide text is derived from it.",
  "data": [
    {"compound": "CCNCC(=O)O", "note": "[N-ethylglycine]", "values": [
      {"measurement": "number of nuclear cells of skin surface stratum corneum", "setting": "[1]", "value": "fewer number of nuclear cells"},
      {"measurement": "decrease of delta-TEWL value as compared to the control solution (conclusion from Table 6)", "setting": "[2]; hairless mice, oleic acid, seventh embodiment", "value": "significant decrease of delta-TEWL value"},
      {"measurement": "ΔTEWL", "setting": "[2]; sample 3 weight %, after 10 weight % oleic acid, 3 days, four mice per group, larger = severer roughness, control 12.0", "value": 9.0},
      {"measurement": "Replica Evaluation (mean of n = 5), difference of pore size score before/after application", "setting": "[3]; Table 5, 3.0 weight % solution (15 weight % ethanol), control 0.3", "value": "−1.4"},
      {"measurement": "effect of pore-shrinking (conclusion from Table 5)", "setting": "[3]; human cheek, fifth embodiment", "value": "demonstrated the effect of pore-shrinking"},
      {"measurement": "Evaluation Parakeratosis (mean of 4 mice)", "setting": "[4]; [8]", "value": 1.2},
      {"measurement": "Evaluation Visual (mean of 4 mice), skin roughness", "setting": "[4]; [8]", "value": 1.3},
      {"measurement": "effect of inhibiting parakeratosis (conclusion from Table 4)", "setting": "[4]; hairless mice, oleic acid, fourth embodiment", "value": "have the effect of inhibiting parakeratosis"},
      {"measurement": "surface area of pores, average as compared to pre-application status", "setting": "[5]", "value": 73, "unit": "%"}
    ]},
    {"compound": "NCC(=O)NCC(=O)O", "note": "[glycylglycine] (H-Gly-Gly-OH)", "values": [
      {"measurement": "Replica Evaluation (mean of n = 5), difference of pore size score before/after application", "setting": "[3]; 3 weight % solution (15 weight % ethanol), 13 steps, larger = larger pore, control 0.2", "value": "−1.0"},
      {"measurement": "pore-shrinking effect (conclusion from Table 2)", "setting": "[3]; human cheek, second embodiment", "value": "pore-shrinking effect was observed"},
      {"measurement": "effect of inhibiting parakeratosis (conclusion from Table 1)", "setting": "[4]; hairless mice, oleic acid, first embodiment", "value": "have the effect of inhibiting parakeratosis"},
      {"measurement": "Evaluation Parakeratosis (mean of 4 mice)", "setting": "[4]; [9]", "value": 1.2},
      {"measurement": "Evaluation Visual (mean of 4 mice), skin roughness", "setting": "[4]; [9]", "value": 1.2},
      {"measurement": "average surface area ratio before and after the application", "setting": "[6]; glycylglycine side, control solvent side 102%, p=0.019", "value": 89, "unit": "%"},
      {"measurement": "conical portion surface area after application", "setting": "[6]; individual panels #1-21, 1.6% (w/w) glycylglycine, 15% ethanol, three times a day, one month, area 3.34 mm by 3.34 mm", "value": "1.2057 mm^2 and 1.3727 mm^2 and 1.5166 mm^2 and 1.4427 mm^2 and 1.2368 mm^2 and 0.6078 mm^2 and 0.3675 mm^2 and 0.4880 mm^2 and 1.1250 mm^2 and 0.5977 mm^2 and 1.3739 mm^2 and 0.2691 mm^2 and 1.2348 mm^2 and 1.2053 mm^2 and 1.0498 mm^2 and 0.3669 mm^2 and 0.6778 mm^2 and 1.0541 mm^2 and 0.5801 mm^2 and 0.6728 mm^2 and 1.3879 mm^2"},
      {"measurement": "conical portion surface area ratio after/before", "setting": "[6]; individual panels #1-21, 1.6% (w/w) glycylglycine, three times a day, one month", "value": "0.8948 and 0.9818 and 1.0512 and 1.0627 and 1.0535 and 0.7494 and 0.5279 and 0.7405 and 0.7878 and 0.6357 and 0.8594 and 0.4111 and 1.3932 and 0.8940 and 1.2831 and 0.5594 and 0.7676 and 0.8700 and 1.2931 and 0.7612 and 1.0131"},
      {"measurement": "conical portion surface area ratio after/before, mean", "setting": "[6]; mean of 21 panels (S.D. 0.2597), 1.6% (w/w) glycylglycine, control mean 1.017", "value": 0.8853},
      {"measurement": "photographic evaluation of conspicuous pores", "setting": "[7]", "value": "ameliorated"}
    ]}
  ]
}
